Laboratory results published in US20230058171A1, “NEW ORAL PHARMACEUTICAL COMPOSITION FOR CANCER THERAPY” (BOEHRINGER INGELHEIM INTERNATIONAL GMBH, priority 2021, published 2023).

Tested on: patients with advanced or metastatic solid tumors
Experiment: Trial 1403-0001 Phase Ia dose escalation, Arm B (D1 D8 q4w): adverse events
Type: in vivo
Conditions: for AEs leading to Discontinuation: Dose limiting toxicity, % / AEs leading to Discontinuation: Other adverse event, % / Patients with Dose limiting toxicity, % / Serious AEs: Cogenital Anomaly or Birth Defect, % / Serious AEs: Is Life Threatening, % / Serious AEs: Other Medically Important Serious Event, % / Serious AEs: Persists of Signif. Disability/Incapacity, % / Serious AEs: Requires or Prolongs Hospitalization, % / Serious AEs: Results in Death, % / Subjects with AEs leading to Discontinuation of trial drug, % / Subjects with AEs leading to dose reduction of trial drug, % / Subjects with any AE, % / Subjects with investigator defined drug-related AEs, % / Subjects with maximum CTC Grade 1, % / Subjects with maximum CTC Grade 2, % / Subjects with maximum CTC Grade 3, % / Subjects with maximum CTC Grade 4, % / Subjects with maximum CTC Grade 5, % / Subjects with serious AEs, %: Arm B D1 D8 q4w
Protocol: The Phase Ia dose escalation part aimed to define the Maximum Tolerated Dose (MTD) and the Recommended Dose for Expansion (RDE) for the MDM2-antagonist of formula I based on safety and tolerability, pharmacokinetics, pharmacodynamics, and preliminary efficacy. The RDE will be further explored in the Phase Ib expansion part of the trial.
Dose levels evaluated in Arm A were 10, 20, 30, 45, 50, 60, and 80 mg. Dose levels evaluated in Arm B (referring to the dose administered on Day 1 and Day 8) were 5, 10, 15, 20, 30, 45, and 60 mg.

Cc1c(C(=O)O)ccc2c3n(nc12)[C@@H]1[C@H](C3)N(CC2CC2)[C@@]2(C(=O)Nc3cc(Cl)ccc32)[C@H]1c1cccc(Cl)c1F [MDM2-antagonist of formula I, (2′S,3′S,3a'S,10a'S)-6-chloro-3′-(3-chloro-2-fluorophenyl)-1′-(cyclopropylmethyl)-6′-methyl-2-oxo-1,2,3′,3a′,10′,10a′-hexahydro-1′H-spiro[indole-3,2′-pyrrolo[2′,3′:4,5]pyrrolo[1,2-b]indazole]-7′-carboxylic acid]
AEs leading to Discontinuation: Dose limiting toxicity, % (5 mg): 0%
AEs leading to Discontinuation: Other adverse event, % (5 mg): 0%
Patients with Dose limiting toxicity, % (5 mg): 0%
Serious AEs: Cogenital Anomaly or Birth Defect, % (5 mg): 0%
Serious AEs: Is Life Threatening, % (5 mg): 0%
Serious AEs: Other Medically Important Serious Event, % (5 mg): 0%
Serious AEs: Persists of Signif. Disability/Incapacity, % (5 mg): 0%
Serious AEs: Requires or Prolongs Hospitalization, % (5 mg): 0%
Serious AEs: Results in Death, % (5 mg): 0%
Subjects with AEs leading to Discontinuation of trial drug, % (5 mg): 0%
Subjects with AEs leading to dose reduction of trial drug, % (5 mg): 0%
Subjects with any AE, % (5 mg): 100%
Subjects with investigator defined drug-related AEs, % (5 mg): 33.3%
Subjects with maximum CTC Grade 1, % (5 mg): 66.7%
Subjects with maximum CTC Grade 2, % (5 mg): 33.3%
Subjects with maximum CTC Grade 3, % (5 mg): 0%
Subjects with maximum CTC Grade 4, % (5 mg): 0%
Subjects with maximum CTC Grade 5, % (5 mg): 0%
Subjects with serious AEs, % (5 mg): 0%
AEs leading to Discontinuation: Dose limiting toxicity, % (10 mg): 0%
AEs leading to Discontinuation: Other adverse event, % (10 mg): 0%
Patients with Dose limiting toxicity, % (10 mg): 0%
Serious AEs: Cogenital Anomaly or Birth Defect, % (10 mg): 0%
Serious AEs: Is Life Threatening, % (10 mg): 0%
Serious AEs: Other Medically Important Serious Event, % (10 mg): 0%
Serious AEs: Persists of Signif. Disability/Incapacity, % (10 mg): 0%
Serious AEs: Requires or Prolongs Hospitalization, % (10 mg): 33.3%
Serious AEs: Results in Death, % (10 mg): 0%
Subjects with AEs leading to Discontinuation of trial drug, % (10 mg): 0%
Subjects with AEs leading to dose reduction of trial drug, % (10 mg): 33.3%
Subjects with any AE, % (10 mg): 100%
Subjects with investigator defined drug-related AEs, % (10 mg): 100%
Subjects with maximum CTC Grade 1, % (10 mg): 0%
Subjects with maximum CTC Grade 2, % (10 mg): 33.3%
Subjects with maximum CTC Grade 3, % (10 mg): 66.7%
Subjects with maximum CTC Grade 4, % (10 mg): 0%
Subjects with maximum CTC Grade 5, % (10 mg): 0%
Subjects with serious AEs, % (10 mg): 33.3%
AEs leading to Discontinuation: Dose limiting toxicity, % (15 mg): 0%
AEs leading to Discontinuation: Other adverse event, % (15 mg): 0%
Patients with Dose limiting toxicity, % (15 mg): 0%
Serious AEs: Cogenital Anomaly or Birth Defect, % (15 mg): 0%
Serious AEs: Is Life Threatening, % (15 mg): 0%
Serious AEs: Other Medically Important Serious Event, % (15 mg): 0%
Serious AEs: Persists of Signif. Disability/Incapacity, % (15 mg): 0%
Serious AEs: Requires or Prolongs Hospitalization, % (15 mg): 33.3%
Serious AEs: Results in Death, % (15 mg): 0%
Subjects with AEs leading to Discontinuation of trial drug, % (15 mg): 0%
Subjects with AEs leading to dose reduction of trial drug, % (15 mg): 0%
Subjects with any AE, % (15 mg): 100%
Subjects with investigator defined drug-related AEs, % (15 mg): 100%
Subjects with maximum CTC Grade 1, % (15 mg): 33.3%
Subjects with maximum CTC Grade 2, % (15 mg): 66.7%
Subjects with maximum CTC Grade 3, % (15 mg): 0%
Subjects with maximum CTC Grade 4, % (15 mg): 0%
Subjects with maximum CTC Grade 5, % (15 mg): 0%
Subjects with serious AEs, % (15 mg): 33.3%
AEs leading to Discontinuation: Dose limiting toxicity, % (20 mg): 0%
AEs leading to Discontinuation: Other adverse event, % (20 mg): 0%
Patients with Dose limiting toxicity, % (20 mg): 0%
Serious AEs: Cogenital Anomaly or Birth Defect, % (20 mg): 0%
Serious AEs: Is Life Threatening, % (20 mg): 0%
Serious AEs: Other Medically Important Serious Event, % (20 mg): 33.3%
Serious AEs: Persists of Signif. Disability/Incapacity, % (20 mg): 0%
Serious AEs: Requires or Prolongs Hospitalization, % (20 mg): 33.3%
Serious AEs: Results in Death, % (20 mg): 0%
Subjects with AEs leading to Discontinuation of trial drug, % (20 mg): 0%
Subjects with AEs leading to dose reduction of trial drug, % (20 mg): 0%
Subjects with any AE, % (20 mg): 100%
Subjects with investigator defined drug-related AEs, % (20 mg): 100%
Subjects with maximum CTC Grade 1, % (20 mg): 0%
Subjects with maximum CTC Grade 2, % (20 mg): 66.7%
Subjects with maximum CTC Grade 3, % (20 mg): 33.3%
Subjects with maximum CTC Grade 4, % (20 mg): 0%
Subjects with maximum CTC Grade 5, % (20 mg): 0%
Subjects with serious AEs, % (20 mg): 33.3%
AEs leading to Discontinuation: Dose limiting toxicity, % (30 mg): 0%
AEs leading to Discontinuation: Other adverse event, % (30 mg): 0%
Patients with Dose limiting toxicity, % (30 mg): 0%
Serious AEs: Cogenital Anomaly or Birth Defect, % (30 mg): 0%
Serious AEs: Is Life Threatening, % (30 mg): 0%
Serious AEs: Other Medically Important Serious Event, % (30 mg): 25.0%
Serious AEs: Persists of Signif. Disability/Incapacity, % (30 mg): 0%
Serious AEs: Requires or Prolongs Hospitalization, % (30 mg): 0%
Serious AEs: Results in Death, % (30 mg): 0%
Subjects with AEs leading to Discontinuation of trial drug, % (30 mg): 0%
Subjects with AEs leading to dose reduction of trial drug, % (30 mg): 50%
Subjects with any AE, % (30 mg): 100%
Subjects with investigator defined drug-related AEs, % (30 mg): 100%
Subjects with maximum CTC Grade 1, % (30 mg): 50.0%
Subjects with maximum CTC Grade 2, % (30 mg): 25.0%
Subjects with maximum CTC Grade 3, % (30 mg): 0%
Subjects with maximum CTC Grade 4, % (30 mg): 25.0%
Subjects with maximum CTC Grade 5, % (30 mg): 0%
Subjects with serious AEs, % (30 mg): 25.0%
AEs leading to Discontinuation: Dose limiting toxicity, % (45 mg): 0%
AEs leading to Discontinuation: Other adverse event, % (45 mg): 16.7%
Patients with Dose limiting toxicity, % (45 mg): 16.7%
Serious AEs: Cogenital Anomaly or Birth Defect, % (45 mg): 0%
Serious AEs: Is Life Threatening, % (45 mg): 0%
Serious AEs: Other Medically Important Serious Event, % (45 mg): 16.7%
Serious AEs: Persists of Signif. Disability/Incapacity, % (45 mg): 16.7%
Serious AEs: Requires or Prolongs Hospitalization, % (45 mg): 33.3%
Serious AEs: Results in Death, % (45 mg): 0%
Subjects with AEs leading to Discontinuation of trial drug, % (45 mg): 16.7%
Subjects with AEs leading to dose reduction of trial drug, % (45 mg): 16.7%
Subjects with any AE, % (45 mg): 100%
Subjects with investigator defined drug-related AEs, % (45 mg): 100%
Subjects with maximum CTC Grade 1, % (45 mg): 0%
Subjects with maximum CTC Grade 2, % (45 mg): 33.3%
Subjects with maximum CTC Grade 3, % (45 mg): 50.0%
Subjects with maximum CTC Grade 4, % (45 mg): 16.7%
Subjects with maximum CTC Grade 5, % (45 mg): 0%
Subjects with serious AEs, % (45 mg): 50.0%
AEs leading to Discontinuation: Dose limiting toxicity, % (60 mg): 0%
AEs leading to Discontinuation: Other adverse event, % (60 mg): 0%
Patients with Dose limiting toxicity, % (60 mg): 66.7%
Serious AEs: Cogenital Anomaly or Birth Defect, % (60 mg): 0%
Serious AEs: Is Life Threatening, % (60 mg): 0%
Serious AEs: Other Medically Important Serious Event, % (60 mg): 0%
Serious AEs: Persists of Signif. Disability/Incapacity, % (60 mg): 0%
Serious AEs: Requires or Prolongs Hospitalization, % (60 mg): 66.7%
Serious AEs: Results in Death, % (60 mg): 0%
Subjects with AEs leading to Discontinuation of trial drug, % (60 mg): 0%
Subjects with AEs leading to dose reduction of trial drug, % (60 mg): 66.7%
Subjects with any AE, % (60 mg): 100%
Subjects with investigator defined drug-related AEs, % (60 mg): 100%
Subjects with maximum CTC Grade 1, % (60 mg): 0%
Subjects with maximum CTC Grade 2, % (60 mg): 0%
Subjects with maximum CTC Grade 3, % (60 mg): 33.3%
Subjects with maximum CTC Grade 4, % (60 mg): 66.7%
Subjects with maximum CTC Grade 5, % (60 mg): 0%
Subjects with serious AEs, % (60 mg): 66.7%
AEs leading to Discontinuation: Dose limiting toxicity, % (Total): 0%
AEs leading to Discontinuation: Other adverse event, % (Total): 4.0%
Patients with Dose limiting toxicity, % (Total): 12.0%
Serious AEs: Cogenital Anomaly or Birth Defect, % (Total): 0%
Serious AEs: Is Life Threatening, % (Total): 0%
Serious AEs: Other Medically Important Serious Event, % (Total): 12.0%
Serious AEs: Persists of Signif. Disability/Incapacity, % (Total): 4.0%
Serious AEs: Requires or Prolongs Hospitalization, % (Total): 28.0%
Serious AEs: Results in Death, % (Total): 0%
Subjects with AEs leading to Discontinuation of trial drug, % (Total): 4.0%
Subjects with AEs leading to dose reduction of trial drug, % (Total): 24%
Subjects with any AE, % (Total): 100%
Subjects with investigator defined drug-related AEs, % (Total): 92.0%
Subjects with maximum CTC Grade 1, % (Total): 20.0%
Subjects with maximum CTC Grade 2, % (Total): 36.0%
Subjects with maximum CTC Grade 3, % (Total): 28.0%
Subjects with maximum CTC Grade 4, % (Total): 16.0%
Subjects with maximum CTC Grade 5, % (Total): 0%
Subjects with serious AEs, % (Total): 36.0%
Subjects with AEs leading to dose reduction of trial drug, % (Total, listed as Comp. I): 24.0%
AE alopecia, patients (Arm B, all 25 patients): 24.0%
AE decreased appetite, patients (Arm B, all 25 patients): 40.0%
AE diarrhea, patients (Arm B, all 25 patients): 44.0%
AE fatigue, patients (Arm B, all 25 patients): 52.0%
AE nausea, patients (Arm B, all 25 patients): 92.0%
AE platelet count decreased, patients (Arm B, all 25 patients): 28.0%
AE vomiting, patients (Arm B, all 25 patients): 64.0%
Grade 3 AE anemia, patients (Arm B, all 25 patients): 8.0%
Grade 3 AE platelet count decreased, patients (Arm B, all 25 patients): 8.0%
Grade 4 AE neutrophil count decreased, patients (Arm B, all 25 patients): 8.0%
Grade 4 AE platelet count decreased, patients (Arm B, all 25 patients): 8.0%
SAE platelet count decreased, patients (Arm B, all 25 patients): 8.0%
dose reduction due to diarrhea, patients (Arm B, all 25 patients): 4.0%
dose reduction due to neutropenia and/or thrombocytopenia, patients (Arm B, all 25 patients): 20.0%
drug-related AE alopecia, patients (Arm B, all 25 patients): 24.0%
drug-related AE decreased appetite, patients (Arm B, all 25 patients): 28.0%
drug-related AE diarrhea, patients (Arm B, all 25 patients): 32.0%
drug-related AE fatigue, patients (Arm B, all 25 patients): 40.0%
drug-related AE nausea, patients (Arm B, all 25 patients): 76.0%
drug-related AE platelet count decreased, patients (Arm B, all 25 patients): 28.0%
drug-related AE vomiting, patients (Arm B, all 25 patients): 60.0%
fatal AEs (Arm B, all 25 patients): No fatal AEs were reported
